Results: US9187435B2, “Bridged Spiro[2.4]heptane ester derivatives” (Actelion Pharmaceuticals Ltd., priority 2010, dated 2015)
Structures can show the parent of a compound that is named as a salt.

Biological target: T1, human ALX receptor (Homo sapiens, UniProt P25090)
T1 construct: expressed in transfected cells; host or cells: HEK293 (HEK293-hALXR-Gα16)
T1 sequence (P25090 1-351): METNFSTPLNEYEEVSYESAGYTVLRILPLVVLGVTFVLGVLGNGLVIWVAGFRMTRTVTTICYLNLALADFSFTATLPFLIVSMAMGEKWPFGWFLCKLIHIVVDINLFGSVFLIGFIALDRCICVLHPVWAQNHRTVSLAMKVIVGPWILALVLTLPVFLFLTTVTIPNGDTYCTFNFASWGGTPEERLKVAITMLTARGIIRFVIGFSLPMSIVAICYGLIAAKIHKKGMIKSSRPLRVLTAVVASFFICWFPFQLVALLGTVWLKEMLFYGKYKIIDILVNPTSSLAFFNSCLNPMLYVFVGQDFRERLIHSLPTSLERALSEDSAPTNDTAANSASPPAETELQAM
Assay: Intracellular calcium measurements (FLIPR) in HEK293-hALXR-Gα16 cells, agonistic activity
Type: cell-based
Details: values normalized to WKYMVm 10 nM
Summary of the method: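 HEK293 cells co-expressing human ALX receptor and Gα16, loaded with 1 μM Fluo-4 AM (60 min, 37 °C), then exposed to serially diluted compound. Peak fluorescence above baseline (ex 488/em 540 nm) was recorded after compound addition. Values were normalized to 10 nM WKYMVm as the high control, after subtracting the buffer-addition baseline.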

Row | Structure (SMILES) | EC50 [nM]
1 | O=C(OCCC1(F)CCNCC1)[C@H]1[C@H](C(=O)Nc2ccc(Br)nc2)[C@@H]2CC[C@H]1C21CC1 [Example 40, (1S,2R,3R,4R)-[2-(4-Fluoro-piperidin-4-yl)ethyl 2-((6-bromopyridin-3-yl)carbamoyl)spiro[bicyclo[2.2.1]heptane-7,1′-cyclopropane]-3-carboxylate]] | 4.6
2 | O=C(OC1CCNCC1)[C@H]1[C@H](C(=O)Nc2ccc(Br)nc2)[C@@H]2CC[C@H]1C21CC1 [Example 2, (1S,2R,3R,4R)-[Piperidin-4-yl 2-((6-bromopyridin-3-yl)carbamoyl)spiro[bicyclo[2.2.1]heptane-7,1′-cyclopropane]-3-carboxylate]] | 15.1
3 | O=C(O[C@@H]1CCNC1)[C@H]1[C@H](C(=O)Nc2ccc(Br)nc2)[C@@H]2CC[C@H]1C21CC1 [Example 13, (1S,2R,3R,4R)-[(R)-Pyrrolidin-3-yl 2-((6-bromopyridin-3-yl)carbamoyl)spiro[bicyclo[2.2.1]heptane-7,1′-cyclopropane]-3-carboxylate]hydrochloride] | 17.9
4 | Cc1cc(CNC(=O)[C@H]2[C@H](C(=O)O[C@@H]3CCNC[C@H]3F)[C@H]3CC[C@@H]2C32CC2)on1 (relative stereo) [Example 46, (1S,2R,3R,4R)-[(trans-3-Fluoro-piperidin-4-yl) 2-(((3-methylisoxazol-5-yl)methyl)carbamoyl)spiro[bicyclo[2.2.1]heptane-7,1′-cyclopropane]-3-carboxylate]] | 9.7
5 | O=C(OC1CCN(Cc2ccccc2)CC1)[C@H]1[C@H](C(=O)Nc2ccc(Br)nc2)[C@@H]2CC[C@H]1C21CC1 [Example 76, (1S,2R,3R,4R)-[1-Benzyl-piperidin-4-yl 2-((6-bromopyridin-3-yl)carbamoyl)spiro[bicyclo[2.2.1]heptane-7,1′-cyclopropane]-3-carboxylate]] | 2060
6 | O=C(OCC(O)CO)[C@H]1[C@H](C(=O)Nc2ccc(Br)nc2)[C@@H]2CC[C@H]1C21CC1 (relative stereo) [Example 5, (1S,2R,3R,4R)-[(S*)-2,3-Dihydroxypropyl 2-((6-bromopyridin-3-yl)carbamoyl)spiro[bicyclo[2.2.1]heptane-7,1′-cyclopropane]-3-carboxylate]] | 242
7 | O=C(Nc1ccc(Br)cc1)C1C(C(=O)OCC2CCNCC2)C2C=CC1C21CC1 [Example 35, (1R,4S,5R,6R)-[Piperidin-4-ylmethyl 5-((4-bromophenyl)carbamoyl)spiro[bicyclo[2.2.1]hept[2]ene-7,1′-cyclopropane]-6-carboxylate]] | 2.9
8 | O=C(OC1CCCNC1)[C@H]1[C@H](C(=O)Nc2ccc(Br)nc2)[C@@H]2CC[C@H]1C21CC1 (stereo partly drawn) [Example 9, (1S,2R,3R,4R)-[Piperidin-3-yl 2-((6-bromopyridin-3-yl)carbamoyl)spiro[bicyclo[2.2.1]heptane-7,1′-cyclopropane]-3-carboxylate]hydrochloride] | 2.5
9 | O=C(O[C@H]1CCNC[C@H]1F)[C@H]1[C@H](C(=O)Nc2ccc(Br)nc2)[C@@H]2CC[C@H]1C21CC1 (relative stereo) [Example 74, (1S,2R,3R,4R)-[cis-3-Fluoro-piperidin-4-yl 2-((6-bromopyridin-3-yl)carbamoyl)spiro[bicyclo[2.2.1]heptane-7,1′-cyclopropane]-3-carboxylate]] | 280
10 | CN1C(C)(C)CC(OC(=O)[C@H]2[C@H](C(=O)Nc3ccc(Br)nc3)[C@@H]3CC[C@H]2C32CC2)CC1(C)C [Example 8, (1S,2R,3R,4R)-[1,2,2,6,6-Pentamethylpiperidin-4-yl 2-((6-bromopyridin-3-yl)carbamoyl)spiro[bicyclo[2.2.1]heptane-7,1′-cyclopropane]-3-carboxylate]] | 753

Further lines, results first:

Row | EC50 [nM] | Structure (SMILES)
11 | 50.1 | Cc1cc(CNC(=O)[C@H]2[C@H](C(=O)OC3CCNCC3(F)F)[C@H]3CC[C@@H]2C32CC2)on1 (stereo partly drawn) [Example 61, (1S,2R,3R,4R)-[(3,3-Difluoro-piperidin-4-yl) 2-(((3-methylisoxazol-5-yl)methyl)carbamoyl)spiro[bicyclo[2.2.1]heptane-7,1′-cyclopropane]-3-carboxylate]]
12 | 9.9 | O=C(OCCOCCN1CC[C@H](F)C1)[C@H]1[C@H](C(=O)Nc2ccc(Br)nc2)[C@@H]2CC[C@H]1C21CC1 [Example 48, (1S,2R,3R,4R)-[(S)-2-(2-(3-Fluoropyrrolidin-1-yl)ethoxy)ethyl 2-((6-bromopyridin-3-yl)carbamoyl)spiro[bicyclo[2.2.1]heptane-7,1′-cyclopropane]-3-carboxylate]]
13 | 113 | Cc1cc(CNC(=O)[C@H]2[C@H](C(=O)OCCC3CCNCC3(F)F)[C@H]3CC[C@@H]2C32CC2)on1 (stereo partly drawn) [Example 66, (1S,2R,3R,4R)-[(3,3-Difluoro-piperidin-4-yl)ethyl 2-(((3-methylisoxazol-5-yl)methyl)carbamoyl)spiro[bicyclo[2.2.1]heptane-7,1′-cyclopropane]-3-carboxylate]]
14 | 107 | Cc1cc(CNC(=O)[C@H]2[C@H](C(=O)OCCC(N)=O)[C@H]3CC[C@@H]2C32CC2)on1 [Example 65, (1S,2R,3R,4R)-[(3-Amino-3-oxopropyl) 2-(((3-methylisoxazol-5-yl)methyl)carbamoyl)spiro[bicyclo[2.2.1]heptane-7,1′-cyclopropane]-3-carboxylate]]
15 | 8.8 | O=C(OCC[C@@H]1CCCCN1)[C@H]1[C@H](C(=O)Nc2ccc(Br)nc2)[C@@H]2CC[C@H]1C21CC1 [Example 11, (1S,2R,3R,4R)-[(S)-2-(Piperidin-2-yl)ethyl 2-((6-bromopyridin-3-yl)carbamoyl)spiro[bicyclo[2.2.1]heptane-7,1′-cyclopropane]-3-carboxylate]hydrochloride]
16 | 217 | CN1CCCCC1COC(=O)[C@H]1[C@H](C(=O)Nc2ccc(Br)nc2)[C@@H]2CC[C@H]1C21CC1 (stereo partly drawn) [Example 22, (1S,2R,3R,4R)-[1-Methyl-piperidin-2-ylmethyl 2-((6-bromopyridin-3-yl)carbamoyl)spiro[bicyclo[2.2.1]heptane-7,1′-cyclopropane]-3-carboxylate]]
17 | 77.5 | Cc1cc(CNC(=O)[C@H]2[C@H](C(=O)O[C@H]3CCNC[C@H]3F)[C@H]3CC[C@@H]2C32CC2)on1 (relative stereo) [Example 62, (1S,2R,3R,4R)-[cis-(3-Fluoro-piperidin-4-yl) 2-(((3-methylisoxazol-5-yl)methyl)carbamoyl)spiro[bicyclo[2.2.1]heptane-7,1′-cyclopropane]-3-carboxylate]]
18 | 262 | O=C(OCCC1CCNCC1)[C@H]1[C@H](C(=O)NCc2ccc(Br)cc2F)[C@@H]2CC[C@H]1C21CC1 [Example 72, (1S,2R,3R,4R)-[2-(Piperidin-4-yl)ethyl 2-((4-bromo-2-fluorobenzyl)carbamoyl)spiro[bicyclo[2.2.1]heptane-7,1′-cyclopropane]-3-carboxylate]hydrochloride]
19 | 125 | O=C(OCCCC(=O)N1CCCC1)[C@H]1[C@H](C(=O)Nc2ccc(Br)nc2)[C@@H]2CC[C@H]1C21CC1 [Example 67, (1S,2R,3R,4R)-[(4-Pyrrolidino-4-oxobutyl) 2-((6-bromopyridin-3-yl)carbamoyl)spiro[bicyclo[2.2.1]heptane-7,1′-cyclopropane]-3-carboxylate]]
20 | 18.5 | O=C(OCC1(F)CCNCC1)[C@H]1[C@H](C(=O)Nc2ccc(Br)nc2)[C@@H]2CC[C@H]1C21CC1 [Example 55, (1S,2R,3R,4R)-[(4-Fluoro-piperidin-4-yl)methyl 2-((6-bromopyridin-3-yl)carbamoyl)spiro[bicyclo[2.2.1]heptane-7,1′-cyclopropane]-3-carboxylate]]
21 | 403 | O=C(OCCOCCN1CCC(F)(F)C1)[C@H]1[C@H](C(=O)Nc2ccc(Br)nc2)[C@@H]2CC[C@H]1C21CC1 [Example 75, (1S,2R,3R,4R)-[2-(2-(3,3-Difluoropyrrolidin-1-yl)ethoxy)ethyl 2-((6-bromopyridin-3-yl)carbamoyl)spiro[bicyclo[2.2.1]heptane-7,1′-cyclopropane]-3-carboxylate]]
22 | 3740 | O=C(OCCCC(F)(F)CN1CCCC1)[C@H]1[C@H](C(=O)Nc2ccc(Br)nc2)[C@@H]2CC[C@H]1C21CC1 [Example 78, (1S,2R,3R,4R)-[(4,4-Difluoro-5-(pyrrolidin-1-yl))pent-1-yl 2-((6-bromopyridin-3-yl)carbamoyl)spiro[bicyclo[2.2.1]heptane-7,1′-cyclopropane]-3-carboxylate]]
23 | 30.7 | Cc1cc(CNC(=O)[C@H]2[C@H](C(=O)OCCOCCN3CCCC3)[C@H]3CC[C@@H]2C32CC2)no1 [Example 33, (1S,2R,3R,4R)-[2-(2-(Pyrrolidin-1-yl)ethoxy)ethyl 2-(((5-methylisoxazol-3-yl)methyl)carbamoyl)spiro[bicyclo[2.2.1]heptane-7,1′-cyclopropane]-3-carboxylate]]
